Laboratory results published in patent US20030191131A1, “Use of organic compounds” (priority 2002, published 2003).

How the values were obtained:
BR or C2 cells = assay: Proliferation of BR or C2 cells (cell lines not separated); format: cell-based, canine
Method: (§1) Cell lines: BR and C2 canine mastocytoma cells lines were obtained from Dr. George Caughey (University of California at San Francisco, San Francisco, Calif.). Both cell lines were maintained in DMEM supplemented with 2% bovine calf, 1 mM L-glutamine, 12.5 mM HEPES (pH 7.5), 0.25 mg/mL Histidine, 1% Penicillin-Streptomycin and 1% fungizone. The BR and C2 cells were derived from canine mast cell tumors and were originally established in long-term culture after initial passaging in immunodeficient mice (DeVinney et al., Am. J. Respir. Cell Mol. Biol., Vol. 3, No. 5, pp. 413-420 (1990); Lazarus et al., Am. J. Physiol., Vol. 251, No. 6, Pt 1, pp. C935-C944 (1986)). The BR cell line has a point mutation (T1752C) resulting in a Leucine to Proline substitution at amino acid 575 (juxtamembrane domain). The C2 cell line has an internal tandem duplication (ITD) of the KIT juxtamembrane region.

[1] = test system: cutaneous mast cell tumors; assay: Prospective case series of pet dogs with measurable cutaneous mast cell tumors; format: in vivo, dog; settings: 25 mg/kg PO QD x 60 days of SALT I
Method: The study patients are pet dogs with measurable and histologically-confirmed mast cell tumors. Cases are limited to those with measurable lesions amenable to biopsy.
Pretreatment evaluation of all cases include physical examination, complete blood count, buffy coat, serum biochemistry, urinalysis, serum bile acids (fasting and post-prandial), documentation of regional lymph node size, abdominal radiographs and abdominal ultrasound. The treatment regimen is 25 mg/kg PO QD×60 days of SALT I.
Treatment is continued in all cases for 60 days unless disease progression is noted. In cases experiencing partial response or complete response ongoing therapy for an additional 60 days may be considered. Cases successfully completing therapy are eligible for repeat entry to study.
The efficacy of COMPOUND I is assessed against measurable cutaneous mast cell tumors, using clinical endpoints. Biological endpoints may be taken from serial biopsies collected from cutaneous tumors and from blood samples available through the treatment course.
Clinical endpoints include response rate of measurable tumors, objective response against measurable tumor, and time to progression of measurable tumor. All adverse side effects will be recorded.
Furthermore, it may be observed that more animals obtaining treatment show Stable Disease (SD), while less treated animals show Progressive Disease (PD). […]

[2] = test system: constitutively activated mutant canine KIT (BR and C2 cells); assay: KIT autophosphorylation in BR and C2 cell lysates (anti-P-Tyr Western immunoblot); format: cell-based
From the text: Antibodies: A polyclonal rabbit anti-KIT antibody (c-kit Ab-1) was used at a dilution of 1:500 (c-kit Ab-1; Oncogene, Cambridge, Mass.). An anti-phosphotyrosine antibody (PY20) was used at a dilution of 1:1000 (PY20 Transduction Laboratories; Lexington, Ky.). Peroxidase conjugated goat anti-mouse antibody was used at a dilution of 1:5000 and goat anti-rabbit antibody at a dilution of 1:10,000 (Pierce; Rockford, Ill.).
as §1
Protein lysates: BR and C2 cells were washed ×2 in PBS and then quiesced in Optimem (Gibco-BRL) at 37° C. for approximately 18 hours.
Dermatol., Vol.114, No. 2, pp. 392-394 (2000)).

Question: What does the source list for `Cc1ccc(NC(=O)c2ccc(CN3CCN(C)CC3)cc2)cc1Nc1nccc(-c2cccnc2)n1` [COMPOUND I]?
Answer: Inhibition of proliferation (BR or C2 cells; 0.001-0.01 μM, 48-72 hours): Partial inhibition; Morphologic observations of inhibitor treated cells (BR or C2 cells; data not shown): changes consistent with apoptosis; Objective Tumors Responses [1]: are observed; Inhibition of KIT autophosphorylation ([2]; 0.1 μM dose, BR or C2 cells): Near complete inhibition; Autophosphorylation of c-kit ([2]; 0.001-0.01 μM doses, BR or C2 cells): Limited autophosphorylation; Inhibition of KIT autophosphorylation ([2]; 10 and 1.0 μM doses, BR or C2 cells, 90 minutes incubation, no SLF): complete inhibition; Potency on mutated c-kit receptor compared with wild type c-kit receptor ([2]; BR and C2 cells against literature wild type value): more potent inhibitor of this mutated receptor than it is of the wild type c-kit receptor; Expression of c-kit protein (membrane reprobed with anti-c-kit antibody) ([2]; treated BR or C2 cells): no change in expression of c-kit protein
